# Measured values: patent US9006228B2 (Merck Sharp & Dohme Corp., priority 2011, dated 2015)
# Biological target: T1, human GPR119 (Homo sapiens, UniProt Q8TDV5)
# T1 sequence (Q8TDV5 1-308 limits assumed): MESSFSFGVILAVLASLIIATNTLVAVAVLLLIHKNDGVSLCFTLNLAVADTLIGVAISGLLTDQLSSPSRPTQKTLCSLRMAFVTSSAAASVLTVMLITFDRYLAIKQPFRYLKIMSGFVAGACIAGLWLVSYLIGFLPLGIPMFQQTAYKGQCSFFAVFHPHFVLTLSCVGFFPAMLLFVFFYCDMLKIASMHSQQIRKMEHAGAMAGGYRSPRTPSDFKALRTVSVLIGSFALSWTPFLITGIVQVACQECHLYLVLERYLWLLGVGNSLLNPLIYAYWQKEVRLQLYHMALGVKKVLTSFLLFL
# Experiment: Measurement of GPR119 signaling (cAMP assay; LANCE kit or HTRF) in HEK293 cells stably transfected with human GPR119
# Type: cell-based
# Settings: agonist-stimulated cAMP in HEK293 cells expressing human GPR119
# How it was run: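 LANCE method: cAMP detected with Eu-chelate/biotin-cAMP tracer, 3 h, read at 665 nm, converted via cAMP standards; basal from DMSO, maximum from internal agonist, 4-parameter fit.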
row,SMILES,EC50
1,"CC(C)OC(=O)N1CCC([C@H]2C[C@H]2COCc2ccc(S(C)(=O)=O)cc2)CC1 [Example 9, isopropyl 4-[(1R,2R)-2-({[4-(methylsulfonyl)benzyl]oxy}methyl)cyclopropyl]piperidine-1-carboxylate]",16 nM
2,CC(C)(O)c1cnc(N2CCC([C@H]3C[C@H]3COCc3ccc(S(C)(=O)=O)cc3F)CC2)nc1 [Example 76],15 nM
3,"CC(O)CS(=O)(=O)c1ccc(COC[C@@H]2C[C@@H]2C2CCN(c3cnc(Cl)cn3)CC2)c(F)c1 (stereo partly drawn) [Example 98, 1-({4-[({(1R,2R)-2-[1-(5-chloropyrazin-2-yl)piperidin-4-yl]cyclopropyl}methoxy)methyl]-3-fluorophenyl}sulfonyl)propan-2-ol]",7.3 nM
4,"CCc1cnc(N2CCC([C@H]3C[C@H]3COCc3ccc(C[C@@H](C)O)cc3)CC2)nc1 [Example 58, (2R)-1-{4-[({(1R,2R)-2-[1-(5-ethylpyrimidin-2-yl)piperidin-4-yl]cyclopropyl}methoxy)methyl]phenyl}propan-2-ol]",11 nM
5,"CCc1cnc(N2CCC([C@H]3C[C@H]3COCc3ccc(S(C)(=O)=O)cn3)CC2)nc1 [Example 3, 5-ethyl-2-{4-[(1R,2R)-2-({[5-(methylsulfonyl)pyridin-2-yl]methoxy}methyl)cyclopropyl]piperidin-1-yl}pyrimidine]",1.5 nM
6,"CCc1cnc(N2CCC([C@H]3C[C@H]3COCc3ccc(-c4cnc(OC)nc4)cc3F)CC2)nc1 [Example 104, 5-{4-[({(1R,2R)-2-[1-(5-ethylpyrimidin-2-yl)piperidin-4-yl]cyclopropyl}methoxy)methyl]-3-fluorophenyl}-2-methoxypyrimidine]",8.8 nM
7,"COc1cnc(N2CCC([C@H]3C[C@H]3COCc3ccc(S(C)(=O)=O)cn3)CC2)nc1 [Example 6, 5-methoxy-2-{4-[(1R,2R)-2-({[5-(methylsulfonyl)pyridin-2-yl]methoxy}methyl)cyclopropyl]piperidin-1-yl}pyrimidine]",15 nM
8,"CC(C)c1noc(N2CCC([C@H]3C[C@H]3COCc3ccc(S(C)(=O)=O)cc3F)CC2)n1 [Example 78, 4-[(1R,2R)-2-({[2-fluoro-4-(methylsulfonyl)benzyl]oxy}methyl)cyclopropyl 1]-1-(3-isopropyl-1,2,4-oxadiazol-5-yl)piperidine]",4.9 nM
9,"CCc1noc(N2CCC([C@H]3C[C@H]3COCc3ccc(S(C)(=O)=O)cc3)CC2)n1 [Example 30, 1-(3-ethyl-1,2,4-oxadiazol-5-yl)-4-[(1R,2R)-2-({[4-(methylsulfonyl)benzyl]oxy}methyl)cyclopropyl]piperidine]",2.8 nM
10,"CCc1cnc(N2CCC([C@H]3C[C@H]3COCc3ccc(-c4ccnc(N)n4)cc3F)CC2)nc1 [Example 105, 4-{4-[({(1R,2R)-2-[1-(5-ethylpyrimidin-2-yl)piperidin-4-yl]cyclopropyl}methoxy)methyl]-3-fluorophenyl}pyrimidin-2-amine]",10.8 nM
11,CS(=O)(=O)c1ccc(COC[C@@H]2C[C@@H]2C2CCN(c3ncc(-c4cn[nH]c4)cn3)CC2)nc1 [Example 7],15.6 nM
12,"CS(=O)(=O)c1ccc(COC[C@@H]2C[C@@H]2C2CCN(c3ncc(Cl)cn3)CC2)nc1 [Example 1, 5-chloro-2-{4-[(1R,2R)-2-({[5-(methylsulfonyl)pyridin-2-yl]methoxy}methyl)cyclopropyl]piperidin-1-yl}pyrimidine]",8.7 nM
13,"CC(C)(O)c1cnc(N2CCC([C@H]3C[C@H]3COCc3ccc(S(C)(=O)=O)cc3F)CC2)nc1 [Example 75, 2-(2-{4-[(1R,2R)-2-({[2-fluoro-4-(methylsulfonyl)benzyl]oxy}methyl)cyclopropyl]piperidin-1-yl}pyrimidin-5-yl)propan-2-ol]",25 nM

# Further compounds by falling EC50, results first:
row,EC50,SMILES
1,2.52 nM,"COCc1cnc(N2CCC([C@H]3C[C@H]3COCc3ccc(CC(=O)N(C)C)cc3F)CC2)nc1 [Example 147, 2-(3-fluoro-4-((((1R,2R)-2-(1-(5-(methoxymethyl)pyrimidin-2-yl)piperidin-4-yl)cyclopropyl)methoxy)methyl)phenyl)-N,N-dimethylacetamide]"
2,1.9 nM,"CCc1noc(N2CCC([C@H]3C[C@H]3COCc3ccc(S(C)(=O)=O)c(F)c3)CC2)n1 [Example 36, 1-(3-ethyl-1,2,4-oxadiazol-5-yl)-4-[(1R,2R)-2-({[3-fluoro-4-(methylsulfonyl)benzyl]oxy}methyl)cyclopropyl]piperidine]"
3,1.6 nM,"CC(O)CS(=O)(=O)c1ccc(COC[C@@H]2C[C@@H]2C2CCN(c3ncc(Br)cn3)CC2)c(F)c1 (stereo partly drawn) [Example 97, 1-({4-[({(1R,2R)-2-[1-(5-bromopyrimidin-2-yl)piperidin-4-yl]cyclopropyl}methoxy)methyl]-3-fluorophenyl}sulfonyl)propan-2-ol]"
4,1.6 nM,"Cc1cnc(N2CCC([C@H]3C[C@H]3COCc3ccc(S(C)(=O)=O)cc3)CC2)nc1 [Example 21, 5-methyl-2-{4-[(1R,2R)-2-({[4-(methylsulfonyl)benzyl]oxy}methyl)cyclopropyl]piperidin-1-yl}pyrimidine]"
5,1.6 nM,"CC(C)c1noc(N2CCC([C@H]3C[C@H]3COCc3ccc(CC(=O)N(C)C)cc3F)CC2)n1 [Example 137, 2-(3-fluoro-4-((((1R,2R)-2-(1-(3-isopropyl-1,2,4-oxadiazol-5-yl)piperidin-4-yl)cyclopropyl)methoxy)methyl)phenyl)-N,N-dimethylacetamide]"
6,1.5 nM,"CCc1cnc(N2CCC([C@H]3C[C@H]3COCc3ccc(-c4ccncn4)cc3F)CC2)nc1 [Example 110, 4-{4-[({(1R,2R)-2-[1-(5-ethylpyrimidin-2-yl)piperidin-4-yl]cyclopropyl}methoxy)methyl]-3-fluorophenyl}pyrimidine]"
7,0.95 nM,"COC1CN(C(=O)Cc2ccc(COC[C@@H]3C[C@@H]3C3CCN(c4nc(C(C)C)no4)CC3)cc2F)C1 [Example 142, 2-(2-fluoro-4-((((1R,2R)-2-(1-(3-isopropyl-1,2,4-oxadiazol-5-yl)piperidin-4-yl)cyclopropyl)methoxy)methyl)phenyl)-1-(3-methoxyazetidin-1-yl)ethanone]"
8,0.4 nM,"COc1cnc(N2CCC([C@H]3C[C@H]3COCc3ccc(S(C)(=O)=O)cc3)CC2)nc1 [Example 15, 5-methoxy-2-{4-[(1R,2R)-2-({[4-(methylsulfonyl)benzyl]oxy}methyl)cyclopropyl]piperidin-1-yl}pyrimidine]"
9,0.36 nM,"COC(C)c1cnc(N2CCC([C@H]3C[C@H]3COCc3ccc(S(C)(=O)=O)cc3F)CC2)nc1 (single isomer, unassigned) [Example 125]"
10,0.26 nM,"CC(C)c1cnc(N2CCC([C@H]3C[C@H]3COCc3ccc(S(C)(=O)=O)cc3)CC2)nc1 [Example 23, 5-isopropyl-2-{4-[(1R,2R)-2-({[4-(methylsulfonyl)benzyl]oxy}methyl)cyclopropyl]piperidin-1-yl}pyrimidine]"
11,0.2 nM,"CC(C)c1noc(N2CCC([C@H]3C[C@H]3COCc3ccc(S(C)(=O)=O)c(F)c3)CC2)n1 [Example 35, 4-[(1R,2R)-2-({[3-fluoro-4-(methylsulfonyl)benzyl]oxy}methyl)cyclopropyl]-1-(3-isopropyl-1,2,4-oxadiazol-5-yl)piperidine]"
